± gives the expanded uncertainty stated by the source.
Assay: xn = mol fraction of the nth substance listed
Details: 288.15 K, Liquid, Vibrating tube method

COC(=O)OC [dimethyl carbonate] + CO
mass density [kg/m3]
Details | 100 kPa | 5000 kPa | 10000 kPa | 15000 kPa | 20000 kPa | 25000 kPa
x1 = 0.0253 | 810.84 ± 1.4 | 815.18 ± 1.4 | 819.54 ± 1.4 | 823.48 ± 1.4 | 827.53 ± 1.4 | 831.19 ± 1.4
x1 = 0.0503 | 824.62 ± 1.4 | 828.97 ± 1.4 | 833.29 ± 1.4 | 837.23 ± 1.4 | 841.29 ± 1.4 | 844.9 ± 1.4
x1 = 0.0745 | 837.24 ± 1.4 | 841.59 ± 1.4 | 845.92 ± 1.4 | 849.88 ± 1.4 | 853.93 ± 1.4 | 857.55 ± 1.4
x1 = 0.101 | 850.42 ± 1.4 | 854.82 ± 1.4 | 859.16 ± 1.4 | 863.12 ± 1.4 | 867.17 ± 1.4 | 870.8 ± 1.4
x1 = 0.1502 | 872.98 ± 1.4 | 877.39 ± 1.4 | 881.74 ± 1.4 | 885.77 ± 1.4 | 889.81 ± 1.4 | 893.46 ± 1.4
x1 = 0.2059 | 896.31 ± 1.4 | 900.74 ± 1.4 | 905.09 ± 1.4 | 909.15 ± 1.4 | 913.18 ± 1.4 | 916.85 ± 1.4
x1 = 0.25 | 913.24 ± 1.4 | 917.63 ± 1.4 | 921.99 ± 1.4 | 926.05 ± 1.4 | 930.08 ± 1.4 | 933.76 ± 1.4
x1 = 0.3004 | 930.93 ± 1.4 | 935.33 ± 1.4 | 939.69 ± 1.4 | 943.77 ± 1.4 | 947.8 ± 1.5 | 951.49 ± 1.5
x1 = 0.3426 | 944.7 ± 1.4 | 949.1 ± 1.5 | 953.42 ± 1.5 | 957.51 ± 1.5 | 961.53 ± 1.5 | 965.18 ± 1.5
x1 = 0.3984 | 961.49 ± 1.5 | 965.91 ± 1.5 | 970.23 ± 1.5 | 974.34 ± 1.5 | 978.3 ± 1.5 | 981.96 ± 1.5
x1 = 0.4514 | 976.13 ± 1.5 | 980.55 ± 1.5 | 984.83 ± 1.5 | 988.95 ± 1.5 | 992.91 ± 1.5 | 996.58 ± 1.5
x1 = 0.5054 | 989.85 ± 1.5 | 994.22 ± 1.5 | 998.51 ± 1.5 | 1002.64 ± 1.5 | 1006.6 ± 1.5 | 1010.28 ± 1.5
x1 = 0.5509 | 1000.55 ± 1.5 | 1004.93 ± 1.5 | 1009.17 ± 1.5 | 1013.31 ± 1.5 | 1017.27 ± 1.5 | 1020.95 ± 1.5
x1 = 0.6002 | 1011.31 ± 1.5 | 1015.7 ± 1.5 | 1019.95 ± 1.5 | 1024.09 ± 1.5 | 1028.04 ± 1.5 | 1031.69 ± 1.5
x1 = 0.6469 | 1020.74 ± 1.5 | 1025.14 ± 1.5 | 1029.39 ± 1.5 | 1033.54 ± 1.5 | 1037.49 ± 1.5 | 1041.14 ± 1.5
x1 = 0.6993 | 1030.63 ± 1.5 | 1035.03 ± 1.5 | 1039.28 ± 1.5 | 1043.44 ± 1.5 | 1047.34 ± 1.5 | –
x1 = 0.7496 | 1039.53 ± 1.5 | 1043.88 ± 1.5 | 1048.14 ± 1.5 | 1052.31 ± 1.5 | 1056.2 ± 1.5 | –
x1 = 0.799 | 1047.69 ± 1.5 | 1052.04 ± 1.5 | 1056.25 ± 1.5 | 1060.43 ± 1.5 | 1064.32 ± 1.6 | –
x1 = 0.837 | 1053.71 ± 1.5 | 1058.02 ± 1.5 | 1062.23 ± 1.6 | 1066.41 ± 1.6 | 1070.3 ± 1.6 | –
x1 = 0.9093 | 1064.47 ± 1.6 | 1068.78 ± 1.6 | 1072.95 ± 1.6 | 1077.14 ± 1.6 | 1080.97 ± 1.6 | –
x1 = 0.9239 | 1066.51 ± 1.6 | 1070.83 ± 1.6 | 1074.99 ± 1.6 | 1079.18 ± 1.6 | 1083.02 ± 1.6 | –
x1 = 0.9575 | 1071.14 ± 1.6 | 1075.46 ± 1.6 | 1079.63 ± 1.6 | 1083.83 ± 1.6 | 1087.66 ± 1.6 | –
x1 = 0.9861 | 1074.98 ± 1.6 | 1079.3 ± 1.6 | 1083.47 ± 1.6 | 1087.67 ± 1.6 | 1091.5 ± 1.6 | –
x1 = 1 | 1076.83 ± 0.57 | 1081.15 ± 0.57 | 1085.32 ± 0.58 | 1089.52 ± 0.6 | 1093.35 ± 0.61 | –
